According to ChEMBL document CHEMBL4406859, “Antitumor and antiviral activities of 4-substituted 1,2,3-triazolyl-2,3-dibenzyl-L-ascorbic acid derivatives” (Eur J Med Chem, 2019):
The source made the active and inactive calls. The calls are words filed in the database; no cut-off is given here.

Each compound was assayed on Vaccinia virus (assay: Antiviral activity against Vaccinia virus infected in human HELF cells assessed as reduction in virus-induced cytopathogenicity incubated for 7 days by microscopic analysis). Settings: Orthopoxvirus vaccinia.
Type: functional, organism-based

**Q.** For C[Si](C)(C)c1cn(C[C@H](O)[C@H]2OC(=O)C(OCc3ccccc3)=C2OCc2ccccc2)nn1, which Activity is on record?
**A.** inactive

**Q.** How did the Activity turn out when COc1ccc(-c2cn(C/C=C3\OC(=O)C(OCc4ccccc4)=C3OCc3ccccc3)nn2)cc1 was run?
**A.** inactive

**Q.** How did the Activity turn out when Cc1ccc(-c2cn(C/C=C3\OC(=O)C(OCc4ccccc4)=C3OCc3ccccc3)nn2)cc1 was run?
**A.** inactive

**Q.** For O=C1O/C(=C\Cn2cc(CCO)nn2)C(OCc2ccccc2)=C1OCc1ccccc1, which Activity is on record?
**A.** inactive

**Q.** How did the Activity turn out when CC(C)(C)c1cn(C/C=C2\OC(=O)C(OCc3ccccc3)=C2OCc2ccccc2)nn1 was run?
**A.** inactive

**Q.** O=C1O/C(=C\Cn2cc(-c3cccc(O)c3)nn2)C(OCc2ccccc2)=C1OCc1ccccc1 was tested. Which Activity did it give?
**A.** inactive

**Q.** Which Activity does the source give for CC(C)(C)c1cn(C[C@H](O)[C@H]2OC(=O)C(OCc3ccccc3)=C2OCc2ccccc2)nn1 here?
**A.** inactive

**Q.** COc1ccccc1-c1cn(C/C=C2\OC(=O)C(OCc3ccccc3)=C2OCc2ccccc2)nn1 was tested. Which Activity did it give?
**A.** inactive

**Q.** Which Activity does the source give for O=C1O/C(=C\Cn2cc(-c3ccc(Br)cc3)nn2)C(OCc2ccccc2)=C1OCc1ccccc1 here?
**A.** inactive

**Q.** CCCCCCCCCCc1cn(C[C@H](O)[C@H]2OC(=O)C(OCc3ccccc3)=C2OCc2ccccc2)nn1 was tested. Which Activity did it give?
**A.** inactive

**Q.** How did the Activity turn out when O=C1O[C@H]([C@@H](O)Cn2cc(C3CC3)nn2)C(OCc2ccccc2)=C1OCc1ccccc1 was run?
**A.** inactive

**Q.** For CCCCc1cn(C[C@H](O)[C@H]2OC(=O)C(OCc3ccccc3)=C2OCc2ccccc2)nn1, which Activity is on record?
**A.** inactive

**Q.** With O=C1O/C(=C\Cn2cc(-c3cc(F)cc(F)c3)nn2)C(OCc2ccccc2)=C1OCc1ccccc1 as the compound, how does the Activity read?
**A.** inactive

Same assay, conditions: Orthopoxvirus vaccinia, 168 h

**Q.** How did the EC50 turn out when Nc1nc2c(ncn2COCCO)c(=O)[nH]1 [ACYCLOVIR] was run?
**A.** > 250 µM

**Q.** For Nc1nc(O)c2ncn(COC(CO)CO)c2n1 [GANCICLOVIR], which EC50 is on record?
**A.** > 100 µM

**Q.** How did the EC50 turn out when CCCCc1cn(C/C=C2\OC(=O)C(OCc3ccccc3)=C2OCc2ccccc2)nn1 was run?
**A.** > 100 µM

**Q.** Which EC50 does the source give for O=c1[nH]c(=O)n([C@H]2C[C@H](O)[C@@H](CO)O2)cc1/C=C/Br [BRIVUDINE] here?
**A.** 85 µM
